According to the RepoRT retention time repository (doi:10.1021/acs.analchem.1c00972):

How the values were obtained:
[1] = RP, Waters ACQUITY UPLC BEH C18, 100 × 1 mm, 1.7 µm, 50 °C, 0.3 mL/min, estimated dead time 0.17 min; A: water + 0.1% formic acid + 20 mM ammonium formate; B: methanol + 0.1% formic acid + 20 mM ammonium formate; gradient (min/%B) 0/0 15/100 21/100 22/0 30/0; conditions: stereoisomer not certain
[2] = RP, Waters ACQUITY UPLC BEH C18, 100 × 1 mm, 1.7 µm, 50 °C, 0.3 mL/min, estimated dead time 0.17 min; A: water + 10 mM ammonium bicarbonate; B: 10% water + 90% methanol + 10 mM ammonium bicarbonate; gradient (min/%B) 0/0 15/100 21/100 22/0 30/0; conditions: stereoisomer not certain

| LC retention time [1] | LC retention time [2] | SMILES |
| --- | --- | --- |
| 14.3 min | 16.9 min | CCC1OC(=O)C(C)C(OC2CC(C)(OC)C(O)C(C)O2)C(C)C(OC2OC(C)CC(N(C)C)C2O)C(C)(O)CC(C)C(=NOCOCCOC)C(C)C(O)C1(C)O (stereo not given) [Roxithromycin] |
| 12.8 min | 13.1 min | C=C1C(=O)OC2C1CCC(C)=CCCC1(C)OC21 (stereo not given) [Parthenolid] |
| 10 min | 10.1 min | CC12C=CC(=O)C=C1CCC1C3CC(O)C(O)(C(=O)CO)C3(C)CC(O)C12F (stereo not given) [Triamcinolone] |
| 7.92 min | 7.83 min | Cc1ccc(S(=O)(=O)O)c(C)c1 [m-Xylene-4-sulfonic acid] |
| 11.3 min | 11.5 min | CC(C)(C#N)c1cc(Cn2cncn2)cc(C(C)(C)C#N)c1 [Anastrozole] |
| 7.14 min | 5.61 min | Cc1ccnc(NS(=O)(=O)c2ccc(N)cc2)n1 [Sulfamerazine] |
| 7.34 min | 14.1 min | CCN(CCO)CCCC(C)Nc1ccnc2cc(Cl)ccc12 (stereo not given) [Hydroxychloroquine] |
| 4.47 min | 3.99 min | CC(=O)Nc1c(I)c(NC(C)=O)c(I)c(C(=O)O)c1I [Diatrizoate] |
| 5.38 min | 5.35 min | O=C1NC(=O)C2CC=CCC12 (stereo not given) [Tetrahydrophthalimide] |
| 9.42 min | 9.54 min | CC(=O)OCC(COC(C)=O)OC(C)=O [Triacetin] |
| 7.95 min | 8.01 min | CN(C)S(=O)(=O)c1ccc(N)cc1 [4-Amino-N,N-dimethylbenzenesulfonamide] |
| 8.5 min | 11.4 min | CCN1CCN(c2cc3c(cc2F)c(=O)c(C(=O)O)cn3C2CC2)CC1 [Enrofloxacin] |
| 15 min | 15.3 min | C=C1C(=O)OC2C=C(C)CCC=C(C)CCC12 (single isomer, unassigned; (+)) [(+)-Costunolide] |
| 13.1 min | 18.2 min | CC(COc1ccccc1Cc1ccccc1)N1CCCCC1 (stereo not given) [Benproperine] |
| 13.9 min | 14.2 min | O=C(Nc1ccc(Cl)cc1C(O)c1ccccc1)c1ccncc1 (stereo not given) [Inabenfide] |
| 16.1 min | 16.5 min | CCCCCCCCCC(=O)N(C)C [N,N-Dimethyldecan-1-amide] |
| 15.8 min | 18.4 min | CCC(=C(c1ccccc1)c1ccc(OCCN(C)C)cc1)c1ccccc1 [Tamoxifen] |

| LC retention time [1] | LC retention time [2] | SMILES |
| --- | --- | --- |
| 8.4 min | 8.43 min | CC[N+]1([O-])CCCC1CNC(=O)c1cc(S(=O)(=O)CC)c(N)cc1OC (stereo not given) [Amisulpride N-Oxide] |
| 9.47 min | 9.58 min | OC(Cn1cncn1)(Cn1cncn1)c1ccc(F)cc1F [fluconazole] |
| 9.6 min | 14.8 min | COc1cc2c(cc1OC)C1Cc3ccc(OC)c(OC)c3CN1CC2 (stereo not given) [Tetrahydropalmatin] |
| 13.6 min | 17.2 min | CCN(CC)CC#CCOC(=O)C(O)(c1ccccc1)C1CCCCC1 (stereo not given) [Oxybutynin] |
| 19 min | 19.6 min | CC1CCC2(OC1)OC1CC3C4CC=C5CC(O)CCC5(C)C4CCC3(C)C1C2C (stereo not given) [Diosgenin] |
| 13.1 min | 13.4 min | CC(C)CN(CC(O)C(Cc1ccccc1)NC(=O)OC1COC2OCCC12)S(=O)(=O)c1ccc(N)cc1 (stereo not given) [Darunavir] |
| 6.49 min | 10.8 min | CCN(CC)CCNC(=O)c1cc(S(C)(=O)=O)ccc1OC [Tiapride] |
| 7.02 min | 10.2 min | Clc1cccc(Cl)c1NC1=NCCN1 [Clonidine] |
| 18.6 min | 19 min | CON=C1CC2(CC3CC(CC=C(C)CC(C)C=CC=C4COC5C(O)C(C)=CC(C(=O)O3)C45O)O2)OC(C(C)=CC(C)C)C1C (stereo not given) [Moxidectin] |
| 12.4 min | 15.9 min | COc1ccc(CCN(C)CCCC(C#N)(c2ccc(OC)c(OC)c2)C(C)C)cc1OC (stereo not given) [Verapamil] |
| 16.6 min | 16.9 min | CC1COC(=O)c2cc3c(cc21)C(C)(C)C(C)C3(C)C (stereo not given) [Galaxolidone] |
| 12.8 min | 12.6 min | Oc1ccc(C(F)(F)F)cc1 [4-Trifluoromethylphenol] |
| 8.71 min | 11.5 min | Nc1ccc(Nc2ccccc2)cc1 [4-Aminodiphenylamine] |
| 11.8 min | 15.5 min | COc1ccc(C2Sc3ccccc3N(CCN(C)C)C(=O)C2OC(C)=O)cc1 (stereo not given) [Diltiazem] |
| 11.1 min | 20.7 min | COC(=O)c1ccc(C(=O)OC)cc1 [Dimethyl terephthalate] |
| 12.1 min | 17.1 min | CCN(CCCCOC(=O)c1ccc(OC)c(OC)c1)C(C)Cc1ccc(OC)cc1 (stereo not given) [Mebeverine] |
| 10.6 min | 15.4 min | Nc1c(Br)cc(Br)cc1CNC1CCC(O)CC1 (stereo not given) [Ambroxol] |

| SMILES | LC retention time [1] | LC retention time [2] |
| --- | --- | --- |
| CC=C(C)C(=O)OC1CCN2CC=C(COC(=O)C(O)(C(C)O)C(C)(C)O)C12 (stereo not given) [Echimidine] | 9.4 min | 13.2 min |
| CC(C)C1(C)N=C(c2nc3ccccc3cc2C(=O)O)NC1=O (stereo not given) [Imazaquin] | 11.8 min | 9.01 min |
| CNC(=O)Oc1ccccc1C(C)C [Isoprocarb] | 12.9 min | 13.1 min |
| CN(C1CCCCC1)C1CCCCC1 [N-Methyl-dicyclohexylamine] | 9.22 min | 13.1 min |
| COc1ccc(C(=CC(=O)N2CCOCC2)c2ccc(Cl)cc2)cc1OC [Dimethomorph] | 14.4 min | 14.7 min |
| CCOC(=O)Nc1cccc(OC(=O)Nc2ccccc2)c1 [Desmedipham] | 13.5 min | 13.6 min |
| CN1COCN(Cc2cnc(Cl)s2)C1=N | 6.25 min | 6.91 min |
| CNC(=O)ON=CC(C)(C)S(C)=O (stereo not given) [Aldicarb Sulfoxide] | 6.57 min | 6.62 min |
| CC(NC(C)(C)C)C(=O)c1cccc(Cl)c1 (stereo not given) [Bupropion] | 10.5 min | 15.6 min |
| COc1ccc(NC(=O)N(C)C)cc1Cl [Metoxuron] | 10.6 min | 10.7 min |
| CNC(=O)ON=CC(C)(C)SC [Aldicarb] | 16.1 min | 16.4 min |
| COc1nc(C)nc(NC(=O)NS(=O)(=O)c2ccccc2Cl)n1 [Chlorsulfuron] | 12.3 min | 9.11 min |
| CNC(=O)Oc1cccc2c1OC(C)(C)C2O (stereo not given) [3-Hydroxycarbofuran] | 9.35 min | 9.47 min |
| Cc1cc(C)c(C2=C(OC(=O)CC(C)(C)C)C3(CCCC3)OC2=O)c(C)c1 [Spiromesifen] | 17.3 min | 17.7 min |
| CCCCNC(=O)OCC#CI [3-Iodopropynyl butylcarbamate] | 12.9 min | 13.2 min |
| CNC(=O)C(C)SCCSP(=O)(OC)OC (stereo not given) [Vamidothion (Vamidoate)] | 9.33 min | 9.45 min |

| SMILES | LC retention time [1] | LC retention time [2] |
| --- | --- | --- |
| COP(=O)(OC)OC(Br)C(Cl)(Cl)Br (stereo not given) [Naled] | 13.3 min | 13.6 min |
| CC(=O)OC12COC1CC(O)C1(C)C(=O)C(O)C3=C(C)C(O)CC(O)(C(OC(=O)c4ccccc4)C21)C3(C)C (stereo not given) [10-Deacetylbaccatin III] | 11.7 min | 12 min |
| CCCCCCCCn1sccc1=O [2-Octyl-4-isothiazolin-3-one] | 15 min | 15.3 min |
| CN1Cc2c(ccc3c2OCO3)C2C(O)Cc3cc4c(cc3C21)OCO4 (single isomer, unassigned; (+)) [(+)-Chelidonine] | 9.34 min | 15.3 min |
| COc1cc(OC)n2nc(S(=O)(=O)Nc3c(Cl)ccc(C)c3Cl)nc2n1 [Metosulam] | 12 min | 10.9 min |
| O=[N+]([O-])N=C1NCCN1Cc1ccc(Cl)nc1 [Imidacloprid] | 8.69 min | 8.74 min |
| Cc1ccc(OP(=O)(Oc2ccc(C)cc2)Oc2ccc(C)cc2)cc1 [Tricresylphosphate] | 17.3 min | 17.7 min |
| CC(C)CCCCCCCOC(=O)c1ccccc1C(=O)OCCCCCCCC(C)C [Di-iso-decylphthalate] | 20 min | 21.3 min |
| O=c1cccc2n1CC1CNCC2C1 (stereo not given) [Cytisin] | 2.31 min | 7.53 min |
| C=C1C(=O)OC2CCN3CC=C(COC(=O)C(C)(O)C(C)C1C)C23 (stereo not given) [Senecivernine] | 8.55 min | 12.7 min |
| CC=C1CC(C)C(O)(CO)C(=O)OCC2=CCN3CCC(OC1=O)C23 (stereo not given) [Retrorsine] | 7.62 min | 11.6 min |
| NC(=Nc1ccccc1)Nc1ccccc1 [1,3-Diphenylguanidine] | 8.76 min | 10 min |
| COc1cc(C)c(C(=O)c2c(OC)ccc(Br)c2C)c(OC)c1OC [Metrafenone] | 16 min | 16.4 min |
| CCOc1ccc(C(C)(C)COCc2cccc(Oc3ccccc3)c2)cc1 [Etofenprox] | 13.8 min | 14.1 min |
| CC(C1CC1)C(O)(Cn1cncn1)c1ccc(Cl)cc1 (stereo not given) [Cyproconazole] | 14.5 min | 15 min |
